Test results taken from US20260062412A1, “NITROGEN-CONTAINING HETEROCYCLIC COMPOUND HAVING MYT1 INHIBITORY ACTIVITY” (CHUGAI SEIYAKU KABUSHIKI KAISHA, priority 2023, published 2026).

Tests used:
LU65 = experiment: Cytotoxicity test with pemetrexed upon addition of each example compound (CellTiter-Glo); type: cell-based, human; conditions: combination with pemetrexed, LU65 cells, 7 days; maximum value, at the MYT1 inhibitor and pemetrexed concentrations
Procedure: LU65 (received from human tissue bank (JCRB Cell Bank)) was used in the evaluation of the present invention. LU65 is a lung cancer cell line having a truncated deletion mutation of S82* in RB1 gene (see Nature. 2019 May; 569(7757): 503-508. (Non Patent Literature 22)), in which the function of RB1 is decreased. The cell culture was carried out using RPMI-1640 (manufactured by SIGMA) containing 10% FBS (manufactured by SIGMA).
Each pemetrexed (manufactured by Tokyo Kasei Kogyo Co., Ltd.) and each example compound of each concentration were diluted using a DMSO solution, and 0.04 μL of each of series of dilution and DMSO was added to each well of cell culture plate using Echo 555 Liquid Handler (manufactured by Beckman Coulter Inc.). 1000 LU65 cells ([…]) were added to each well, which was cultured at 37° C. in a 5% CO2 incubator for 7 days. Intracellular ATP level which is a cell survival marker was measured and used in the monitoring of cell number. After culturing, 20 μL of CellTiter-Glo (registered trademark) 2.0 (manufactured by Promega) was added to each well, and the emission intensity was measured using Multimode Plate Reader En Vision (registered trademark) Xcite (manufactured by PerkinElmer). The cell survival rate under each condition was calculated by setting the value obtained by subtracting the luminescence of the cell unseeded well from the luminescence of the DMSO-added well as 100%, and calculating the proportion of a value obtained by subtracting the luminescence of the cell unseeded well from the luminescence detected at each well.
In addition, the cytotoxic activity under each condition was calculated by subtracting the survival rate in a combination of pemetrexed of each treatment concentration and each example compound of each treatment concentration, from 100%.

MYT1 protein [1] = target: T1, MYT1 protein (Homo sapiens (Human), UniProt Q99640); experiment: MYT1 kinase activity inhibition test (ELISA, phosphorylation of Y15 of CDK1); type: biochemical; conditions: phosphorylation level of Y15 of CDK1 protein caused by MYT1 protein, 60 minutes
T1 sequence (Q99640 whole entry): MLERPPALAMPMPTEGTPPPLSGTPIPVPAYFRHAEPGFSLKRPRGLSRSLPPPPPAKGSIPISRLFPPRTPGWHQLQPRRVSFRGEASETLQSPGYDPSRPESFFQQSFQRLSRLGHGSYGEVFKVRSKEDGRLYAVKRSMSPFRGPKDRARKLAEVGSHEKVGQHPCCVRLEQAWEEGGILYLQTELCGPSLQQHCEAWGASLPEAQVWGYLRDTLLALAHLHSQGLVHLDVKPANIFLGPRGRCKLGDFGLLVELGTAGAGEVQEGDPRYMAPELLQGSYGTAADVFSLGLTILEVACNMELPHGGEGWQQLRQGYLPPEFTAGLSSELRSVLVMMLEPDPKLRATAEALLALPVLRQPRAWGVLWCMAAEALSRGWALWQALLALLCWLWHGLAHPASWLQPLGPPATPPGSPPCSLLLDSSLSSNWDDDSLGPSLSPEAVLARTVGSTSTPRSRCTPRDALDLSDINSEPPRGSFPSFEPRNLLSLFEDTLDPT
Procedure: The MYT1 kinase activity inhibitory capacity of each compound was evaluated by evaluating the phosphorylation level of Y15 of CDK1 protein caused by MYT1 protein, by ELISA. The kit of CycLex Weel Kinase Assay/Inhibitor Screening Kit Ver. 3 (manufactured by MBL, CY-1172V3) was used. Using Kinase Buffer, 10 μL of 5 nM MYT1 protein (manufactured by Carna Biosciences, Inc.) was prepared. In addition, 30 μL of 83.3 μM of ATP was prepared using Kinase Buffer. In addition, 10 μL of each compound was diluted to each concentration using Kinase Buffer. 30 μL of ATP was added to the plate of the kit, and thereafter, 10 μL of each compound was added thereto. Further, 10 μL of the diluted MYT1 protein solution was added thereto, and then the mixture was mixed, which was allowed to stand at room temperature for 60 minutes. The reaction solution was removed from each well, and each well was washed using Wash Buffer. After Wash Buffer was removed, 100 μL of HRP conjugated Anti-phospho-tyrosine antibody was added to each well, which was allowed to stand at room temperature for 60 minutes. Thereafter, the reaction solution was removed from each well, and each well was washed using Wash Buffer. After Wash Buffer was removed, 100 μL of Substrate Reagent was added to each well, which was allowed to stand at room temperature for 8 minutes. Thereafter, 100 μL of Stop Solution (1 N sulfuric acid) was added to each well according to the manual. Absorbances at 450 nm and 590 nm were measured using Envision (manufactured by PerkinElmer). The phosphorylation level of CDK1 protein was evaluated for each well by subtracting the absorbance at 590 nm from the absorbance at 450 nm. The inhibition rate of each compound added at each concentration was calculated by setting the signal when the compound was not added as 100% and the signal when MYT1 protein was not added as 0%, and the calculation results of IC50 were shown in Table 4.

MYT1 protein [2] = target: T1, MYT1 protein; experiment: Test for binding to ATP binding site of MYT1 (Kinase Tracer 178 / Eu-Anti-GST antibody TR-FRET); conditions: ATP binding site of MYT1, 30 minutes at room temperature

| IC50 (MYT1 protein [1]) [nM] | IC50 (MYT1 protein [2]) [nM] | Compound | Bliss Score (Max) (LU65) [%] | HSA Score (MAX) (LU65) [%] |
| --- | --- | --- | --- | --- |
| 0.25 | 2.3 | Nc1c(-c2ccc(F)c3[nH]ncc23)c2cc(C3CC3)c3ncccc3c2[nH]c1=O [Compound C84, 3-amino-6-cyclopropyl-4-(7-fluoro-1H-indazol-4-yl)-1H-1,7-phenanthrolin-2-one] | 68 | 70 |
| 0.19 | 2.5 | Cc1cc2c(-c3ccc(F)c4[nH]ncc34)c(N)c(=O)[nH]c2c2cccnc12 [Compound C85, 3-amino-4-(7-fluoro-1H-indazol-4-yl)-6-methyl-1H-1,7-phenanthrolin-2-one] | 59 | 58 |
| < 0.17 | 4.6 | CCc1cc2c(-c3ccc(F)c4[nH]ncc34)c(N)c(=O)[nH]c2c2cccnc12 [Compound C86, 3-Amino-6-ethyl-4-(7-fluoro-1H-indazol-4-yl)-1H-1,7-phenanthrolin-2-one] | 67 | 71 |
| < 0.17 | 4.4 | Cn1cc(-c2cc3c(-c4ccc(F)c5[nH]ncc45)c(N)c(=O)[nH]c3c3cccnc23)cn1 [Compound C88, 3-Amino-4-(7-fluoro-1H-indazol-4-yl)-6-(1-methylpyrazol-4-yl)-1H-1,7-phenanthrolin-2-one] | 53 | 61 |
| 0.42 | 14 | CC#Cc1cc2c(-c3ccc(F)c4[nH]ncc34)c(N)c(=O)[nH]c2c2cccnc12 [Compound C90, 3-Amino-4-(7-fluoro-1H-indazol-4-yl)-6-prop-1-inyl-1H-1,7-phenanthrolin-2-one] | 50 | 60 |
| 1.1 | 10 | Nc1c(-c2ccc(F)c3[nH]ncc23)c2cc(C3CCC3)c3ncccc3c2[nH]c1=O [Compound C91, 3-Amino-6-cyclobutyl-4-(7-fluoro-1H-indazol-4-yl)-1H-1,7-phenanthrolin-2-one] | 59 | 61 |
| 1.7 | 19 | Nc1c(-c2ccc(F)c3[nH]ncc23)c2cc(C3CCCC3)c3ncccc3c2[nH]c1=O [Compound C92, 3-Amino-6-cyclopentyl-4-(7-fluoro-1H-indazol-4-yl)-1H-1,7-phenanthrolin-2-one] | 56 | 68 |
| < 4.6 | 2.8 | Nc1c(-c2ccc(F)c3[nH]ncc23)c2cc(C3CCOCC3)c3ncccc3c2[nH]c1=O [Compound C98, 3-Amino-4-(7-fluoro-1H-indazol-4-yl)-6-(oxan-4-yl)-1H-1,7-phenanthrolin-2-one] | 46 | 53 |
| 5.5 | 1.5 | Nc1c(-c2ccc(F)c3[nH]ncc23)c2cc(/C=C/CCO)c3ncccc3c2[nH]c1=O [Compound C100, 3-Amino-4-(7-fluoro-1H-indazol-4-yl)-6-[(E)-4-hydroxybut-1-enyl]-1H-1,7-phenanthrolin-2-one] | 46 | 50 |
| 7.1 | 6.1 | Nc1c(-c2ccc(F)c3[nH]ncc23)c2cc(C3CCC4(CC3)OCCO4)c3ncccc3c2[nH]c1=O.O=C(O)C(F)(F)F [Compound C101, 3-Amino-6-(1,4-dioxaspiro[4.5]decan-8-yl)-4-(7-fluoro-1H-indazol-4-yl)-1H-1,7-phenanthrolin-2-one 2,2,2-trifluoroacetate] | 46 | 64 |
| < 4.6 | 3.8 | CC(C)(O)C#Cc1cc2c(-c3ccc(F)c4[nH]ncc34)c(N)c(=O)[nH]c2c2cccnc12 [Compound C102, 3-Amino-4-(7-fluoro-1H-indazol-4-yl)-6-(3-hydroxy-3-methylbut-1-inyl)-1H-1,7-phenanthrolin-2-one] | 36 | 49 |
| 7.6 | 3.6 | Nc1c(-c2ccc(F)c3[nH]ncc23)c2cc(C3CCN(C4CCC4)CC3)c3ncccc3c2[nH]c1=O [Compound C134, 3-Amino-6-(1-cyclobutylpiperidin-4-yl)-4-(7-fluoro-1H-indazol-4-yl)-1H-1,7-phenanthrolin-2-one] | 49 | 60 |
| < 4.6 | 2.3 | Nc1c(-c2ccc(F)c3[nH]ncc23)c2cc(C3CCN(C4COC4)CC3)c3ncccc3c2[nH]c1=O [Compound C135, 3-Amino-4-(7-fluoro-1H-indazol-4-yl)-6-[1-(oxetan-3-yl)piperidin-4-yl]-1H-1,7-phenanthrolin-2-one] | 48 | 58 |
| 8.3 | 3.4 | CC(C)N1CCC(c2cc3c(-c4ccc(F)c5[nH]ncc45)c(N)c(=O)[nH]c3c3cccnc23)CC1.O=CO [Compound C136, 3-Amino-4-(7-fluoro-1H-indazol-4-yl)-6-(1-propan-2-ylpiperidin-4-yl)-1H-1,7-phenanthrolin-2-one; formate] | 45 | 57 |
| 7.7 | 4.7 | Nc1c(-c2ccc(F)c3[nH]ncc23)c2cc(C3CCN(C4CCOCC4)CC3)c3ncccc3c2[nH]c1=O [Compound C137, 3-Amino-4-(7-fluoro-1H-indazol-4-yl)-6-[1-(oxan-4-yl)piperidin-4-yl]-1H-1,7-phenanthrolin-2-one] | 45 | 56 |
| < 4.6 | 2 | CN1CCC(c2cc3c(-c4ccc(F)c5[nH]ncc45)c(N)c(=O)[nH]c3c3cccnc23)CC1 [Compound C138, 3-Amino-4-(7-fluoro-1H-indazol-4-yl)-6-(1-methylpiperidin-4-yl)-1H-1,7-phenanthrolin-2-one] | 73 | 73 |
| 19 | 3.3 | Nc1c(-c2ccc(F)c3[nH]ncc23)c2cc(C3CCC(=O)CC3)c3ncccc3c2[nH]c1=O [Compound C139, 3-Amino-4-(7-fluoro-1H-indazol-4-yl)-6-(4-oxocyclohexyl)-1H-1,7-phenanthrolin-2-one] | 46 | 54 |
| < 4.6 | 1.7 | Nc1c(-c2ccc(F)c3[nH]ncc23)c2cc([C@H]3CC[C@H](O)CC3)c3ncccc3c2[nH]c1=O [Compound C140, 3-Amino-4-(7-fluoro-1H-indazol-4-yl)-6-((1r, 4r)-4-hydroxycyclohexyl)-1H-1,7-phenanthrolin-2-one] | 73 | 76 |
| 11 | 4.9 | Nc1c(-c2ccc(F)c3[nH]ncc23)c2cc([C@H]3CC[C@@H](O)CC3)c3ncccc3c2[nH]c1=O [Compound C141, 3-Amino-4-(7-fluoro-1H-indazol-4-yl)-6-((1s, 4s)-4-hydroxycyclohexyl)-1H-1,7-phenanthrolin-2-one] | 78 | 72 |
| 0.2 | 2.7 | Nc1c(-c2ccc(Cl)c3[nH]ncc23)c2cc(C3CC3)c3ncccc3c2[nH]c1=O [Compound C143, 3-Amino-4-(7-chloro-1H-indazol-4-yl)-6-cyclopropyl-1H-1,7-phenanthrolin-2-one] | 50 | 67 |
